PubChem BioAssay AID2305 (GlaxoSmithKline (GSK), 2010)

test system: P. falciparum 3D7 growth, pLDH absorbance; experiment: P. falciparum 3D7 growth inhibition, dose response, strain 3D7 (AID 2305)

SMILES	IC50 [nM]
COc1ccc2c(NN=Cc3cccc(C)n3)ccnc2c1	760
Cc1cc2cc(CNCCc3ccccc3Br)ccc2nc1N	240
COc1ccccc1-n1ccnc1SCC(=O)Nc1cccc(C(F)(F)F)c1	160
C=CCc1cc(Cc2cnc(N)nc2N)c2ccc(C)nc2c1OC	690
Cc1ccccc1N1CCN(c2ccc(C(=O)Nc3ccccc3)cc2)CC1	720
O=C(Nc1nc(-c2ccccn2)cs1)c1ccccc1COc1ccccc1	970
Clc1nc2ccccn2c1C=Cc1ccc2ccccc2n1	270
COc1ccc(NC(=O)c2c(NC(=O)c3cccs3)sc3c2CCCC3)cc1	450
CCCCCCOc1ccc(C(=O)N[C@H]2CCN(CCCCCNC(=O)/C=C/c3ccc(Cl)c(Cl)c3)C2)cc1	690
CSc1ccc(NC(=O)Nc2cc(C)nc3ccccc23)cc1	710
COc1ccc2ccc(F)c(CC(=O)N3CCOC(CNCc4cccc(-c5ccc(F)cc5)n4)C3)c2n1 (stereo unspecified)	1010
CC1CCCCC1N(C)C1CCN(CCCNC(=O)C=Cc2ccc(Cl)cc2Cl)CC1 (stereo unspecified)	650
NC(N)=NN=CC(=O)Nc1cccc(C(F)(F)F)c1	1000
CN(C)c1ccc(Br)c(Br)c1	970
O=C(/C=C/c1ccc(Cl)c(Cl)c1)NCC1CCN(Cc2ccc(O)cc2)CC1	690
CC(C)C[C@@H](NC(=O)OC(C)(C)C)C(=O)Nc1ccc(Cc2ccc(NC(=O)[C@@H](CC(C)C)NC(=O)OC(C)(C)C)cc2)cc1	210
CCN1CCC(N2CCC(n3c(C)nc4cc(C(F)(F)F)ccc43)CC2)CC1	1020
O=C(NC1CCN(CCN2CCc3ccccc3CC2)CC1)c1ccc(-c2ccc(C(F)(F)F)cc2)cc1	930
COc1cc2c(cc1S(=O)(=O)c1ccc(NC(=O)c3ccc4ccccc4c3)cc1)CCN(C)CC2	800
Cc1ccc2c(c1)nc(N)n2C[C@H](O)c1ccccc1	580
O=C(Nc1ccc(N2CCN(Cc3ccccc3Cl)CC2)cc1)c1ccc([N+](=O)[O-])o1	970
Cc1cc([N+](=O)[O-])ccc1N1CCN(CCCCNC(=O)c2ccc(NC(=O)c3ccc(Cl)cc3)cc2)CC1	890
CCOC(=O)C1=C(C)NC2=C(C(=O)C(C(=O)OC)C(C)C2)C1c1cc(Br)c(OCC)c(OC)c1 (stereo unspecified)	700
Cc1c(-c2cccc(NC(=O)C(C)(C)Oc3ccc(Cl)cc3)c2)nc2ncccn12	170

SMILES	IC50 [nM]
N#Cc1cccc(COC(=O)C2=C(COc3ccccc3Cl)NC(=O)NC2c2c[nH]c3cnccc23)c1 (stereo unspecified)	790
COc1ccc(C(=O)NC(c2ccc(Cl)cc2Cl)c2cc(Cl)c3cccnc3c2O)cc1 (stereo unspecified)	500
COc1ccc(C)c(Nc2ccnc(Nc3ccc(-c4cnc[nH]4)cc3)n2)c1	1370
CCOC(=O)c1c(NC(NC(=O)c2ccc(C(C)(C)C)cc2)C(Cl)(Cl)Cl)sc2c1CCCC2 (stereo unspecified)	810
Cc1nc(C)n(CC(=O)Nc2cccc(-c3cccc(-c4nc5ccc(C(F)(F)F)cc5[nH]4)c3)c2)n1	760
Cc1cc(N[C@@H](CC(C)C)C(=O)NCCc2ccccc2)nc(NCc2ccccc2C)n1	910
C#CCCOc1ccc2ccccc2c1CNCCCCCCNCc1c(OCCC#C)ccc2ccccc12	810
Cc1cccc2[nH]c(-c3ccc(-c4ccc(CNCc5ccccc5)cc4)cc3)nc12	510
CC(C)CCN=C(N)c1ccc(OCCCCCOc2ccc(C(N)=NCCC(C)C)cc2)cc1	530
CC(C)c1sc(N2CCN(C)CC2)nc1C(=O)Nc1cccc2c1CCCC2	1280
CCOc1ccc(C(=O)Nc2cc(Br)c3c(c2)CNCC3)cc1C#N	760
Cc1nc2nc(N)nc(N)c2c(C)c1Cc1cccc(C(N)=O)c1	1080
O=C(/C=C/c1ccc(Cl)c(Cl)c1)NCCCCCN1CC[C@H](c2c[nH]c3ccccc23)[C@@H](O)C1	800
Cc1cc(N(C)C)nc(Nc2ccc(NC(=O)c3c(F)cccc3F)cc2)n1	1380
CCN1CCN(c2cc(C)c3cc(NC(=O)c4ccc([N+](=O)[O-])c(C)c4)ccc3n2)CC1	650
Cc1nc(-c2cccc(C(=O)Nc3cnc4ccccc4c3)c2)no1	1160
Cc1ccccc1C1CCN(C2CCC(NC(=O)/C=C/c3cccc(C(F)(F)F)c3)CC2)CC1 (stereo unspecified)	1520
CNC(=C[N+](=O)[O-])NCCSCc1cc(C)c(CN(C)C)s1	350
CCOC(=O)c1nc2ccc(SC3CCCCC3)cn2c1Br	1060
O=S(=O)(NCCN1CCCC1)c1ccc(-c2cccc(CNC3Cc4ccccc4C3)c2)cc1F	1020
CN(CC(=O)Nc1ccc(F)cc1)C(=O)c1ccc(-c2ccc(F)cc2)o1	930
Cc1cc(NC2CCCC2)nc(Nc2ccc(F)cc2)n1	470
COc1ccccc1NC(=O)NC1CCN(CCCCCNC(=O)/C=C/c2ccc(Cl)c(Cl)c2)CC1	750
CN(C)CCN(C)Cc1nc(-c2ccc3c(Nc4ccc(Oc5ccccc5)cc4)ccnc3c2)cs1	210

SMILES	IC50 [nM]
O=C(/C=C/c1ccc(Cl)c(Cl)c1)NCCCCCCN1CCN(C(=O)Nc2cc(Cl)nc(Cl)c2)CC1	780
Nc1nc(N)c2c(Cl)c(CNc3cccc(C(=O)O)c3)ccc2n1	10
Cc1nc2ccc3ccc(CNc4ccc(C(=O)N[C@@H](CCC(=O)O)C(=O)N[C@@H](Cc5cccs5)C(=O)O)c(F)c4)cc3c2c(=O)[nH]1	790
CCCCCCNC(=O)C1Cc2c([nH]c3ccc(C)cc23)C2(CCN(Cc3ccccc3)CC2)N1 (stereo unspecified)	980
Cc1noc(C)c1-c1cccc(CNCc2cccc(-c3ccc(-c4nc5ccccc5[nH]4)cc3)c2)c1	230
COc1ccc2nc(C)cc(NN=Cc3ccncc3)c2c1	700
O=[N+]([O-])c1nc(Br)n(Cc2ccc(Cl)cc2)n1	360
Cc1cc2nc(-c3ccc(/C=C/C(=O)NCCCc4ccccc4)cc3)[nH]c2cc1C	960
Cc1ccc(NC(=O)Nc2ccc(Cl)c(C(F)(F)F)c2)cc1-c1ccc(C(=O)NCCN2CCOCC2)cc1	810
Nc1nc(N)c2c(n1)CCc1cc(Br)ccc1-2	1130
Cc1[nH]c(C)c(-c2ccc(Oc3ccc(Cl)c(Cl)c3)cc2)c(=O)c1Br	300
COc1ccc(-c2ccc(NC(=O)c3cccc(F)c3)cc2)cc1CN1CCCN(C)CC1	670
Cc1cc(N[C@@H](Cc2ccccc2)C(=O)NCc2cccc(F)c2)nc(NCCCOC(C)C)n1	920
COc1ccc2ncc(F)c([C@@H](O)CN3CCC(NCc4cc5c(cn4)OCCO5)CC3)c2c1	140
Cc1cc(=O)c(-c2ccc(OCCSc3ccc(C(F)(F)F)cn3)cc2)c(C)[nH]1	530
O=S(=O)(c1cccc(F)c1)c1ccc(Nc2ncnc3cc(Br)sc23)cc1Cl	1030
O=C(N[C@H]1CCN(CCc2ccc(O[C@H]3CCNC3)c(Br)c2)C1)c1ccc(Cl)c(Cl)c1	660
O=C(Nc1ccc(Cl)c(-c2nc3ccccc3[nH]2)c1)c1ccc(-c2ccc(Cl)cc2)o1	790
NC(=O)c1ccsc1NC(=O)CNC(c1ccc(F)cc1)c1cccs1 (stereo unspecified)	950
CC(C)(C)c1ccc(Cn2c(=N)n(CC(=O)c3ccc(-c4ccccc4)cc3)c3ccccc32)cc1	160
Fc1ccc([C@H]2N=C(SCCSC3=N[C@H](c4ccc(F)cc4)[C@H](c4ccc(F)cc4)N3)N[C@H]2c2ccc(F)cc2)cc1	910
O=C(C=Cc1ccc(Cl)c(Cl)c1)NCCCCCN1CCC(CCNC(=O)/C=C/c2ccccc2)CC1	780
CC(C)NCc1ccc(-c2ccc(CN3CCCC(c4ccccc4)C3)cc2)c(C(=O)NCC2CCCCC2)c1 (stereo unspecified)	720
